Reference: patent publication US20230203081A1, “LINCOSAMIDE ANTIBIOTICS AND USES THEREOF” (President and Fellows of Harvard College, priority 2020, published 2023)
≈ marks a conversion by molar mass, not a printed value.

How the values were obtained:
Assay type in all cases: cell-based
[1] = tested on: S. pyogenes MMX 946; cErmB; test: MIC (broth microdilution or agar dilution, CLSI); conditions: Streptococcus pyogenes; S. pyogenes HAV#035, MMX 946; cErmB, mac-resistant; read-out: MIC
In short: (§1)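 Isolates other than streptococci and anaerobes, which had their own procedures, were grown overnight at 35° C on tryptic soy agar with 5% sheep blood. Suspensions were then diluted to a final inoculum of 5×10^5 CFU/mL in broth microdilution wells.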

S. aureus ATCC 29213 = test: MIC (broth microdilution or agar dilution, CLSI); conditions: Staphylococcus aureus, ATCC29213, S. aureus HAV#001, ATCC 29213, MP-549; read-out: MIC
In short: as §1

[2] = tested on: S. aureus ATCC BAA-1707 (MRSA); test: MIC (broth microdilution or agar dilution, CLSI); conditions: Staphylococcus aureus; S. aureus HAV#016, ATCC BAA-1707; MRSA; read-out: MIC
In short: as §1

E. faecalis ATCC 29212 = test: MIC (broth microdilution or agar dilution, CLSI); conditions: Enterococcus faecalis, ATCC29212, E. faecalis HAV#005, ATCC 29212; read-out: MIC
In short: as §1

E. coli LptD = test: MIC (broth microdilution or agar dilution, CLSI); conditions: Escherichia coli, E. coli HAV#040; LptD; read-out: MIC
In short: as §1

S. aureus MMX 3035 cErmA = test: MIC (broth microdilution or agar dilution, CLSI); conditions: Staphylococcus aureus, MMX3035CERMA; S. aureus HAV#031, MMX 3035; cErmA; read-out: MIC
In short: as §1

S. pneumoniae ATCC 49619 = test: MIC (broth microdilution or agar dilution, CLSI); conditions: Streptococcus pneumoniae, ATCC49619, S. pneumoniae HAV#003, ATCC 49619; read-out: MIC
In short: as §1

[3] = tested on: S. pneumoniae MMX 3028 cErmB; test: MIC (broth microdilution or agar dilution, CLSI); conditions: Streptococcus pneumoniae, MMX3028CERMB; S. pneumoniae HAV#033; MMX 3028, cErmB; read-out: MIC
In short: as §1

S. pneumoniae ATCC 6303 = test: MIC (broth microdilution or agar dilution, CLSI); conditions: Streptococcus pneumoniae, ATCC6303; S. pneumoniae HAV#351, ATCC 6303; read-out: MIC
In short: as §1

S. aureus ATCC 700699 = test: MIC (broth microdilution or agar dilution, CLSI); conditions: Staphylococcus aureus; S. aureus HAV#202, ATCC 700699 (VISA); read-out: MIC
In short: as §1

[4] = tested on: S. pneumoniae MMX 3031 cMefA; test: MIC (broth microdilution or agar dilution, CLSI); conditions: Streptococcus pneumoniae, MMX3031CMEFA, S. pneumoniae HAV#034; MMX 3031, cMefA; read-out: MIC
In short: as §1

S. aureus hVISA = test: MIC (broth microdilution or agar dilution, CLSI); conditions: Staphylococcus aureus; S. aureus HAV#204, hVISA; read-out: MIC
In short: as §1

[5] = tested on: E. faecalis MMX 847; cErmB; test: MIC (broth microdilution or agar dilution, CLSI); conditions: Enterococcus faecalis; E. faecalis HAV#036, MMX 847; mac-resistant, cErmB; read-out: MIC
In short: as §1

S. aureus BAA 977 iErmA = test: microbe, parasite or virus in culture; conditions: Staphylococcus aureus, BAA-977 / MRSA
In short: as §1

E. coli ΔTolC = test: microbe, parasite or virus in culture; conditions: Escherichia coli, E. coli HAV#038; ΔTolC
In short: as §1

[6] = tested on: broad panel of different clinical isolates; test: microbe, parasite or virus in culture
In short: as §1

S. aureus MP-549 msrA = test: microbe, parasite or virus in culture; conditions: Staphylococcus aureus, MP549MSRA; S. aureus HAV#032, MP-549; MSR(A); read-out: MIC
In short: as §1

CC(=O)NC[C@H]1CN(c2ccc(N3CCOCC3)c(F)c2)C(=O)O1 [Linezolid]
MIC [1]: 1 µg/mL (≈ 2.96 µM) | MIC (S. aureus ATCC 29213): 2 µg/mL (≈ 5.93 µM) | MIC [2]: 2 µg/mL (≈ 5.93 µM) | MIC (E. faecalis ATCC 29212): 2 µg/mL (≈ 5.93 µM) | MIC (E. coli LptD): 32 µg/mL (≈ 94.9 µM) | MIC (S. aureus MMX 3035 cErmA): 2 µg/mL (≈ 5.93 µM) | MIC (S. pneumoniae ATCC 49619): 1 µg/mL (≈ 2.96 µM) | MIC [3]: 0.5 µg/mL (≈ 1.48 µM) | MIC (S. pneumoniae ATCC 6303): 1 µg/mL (≈ 2.96 µM) | MIC (S. aureus ATCC 700699): 2 µg/mL (≈ 5.93 µM) | MIC [4]: 1 µg/mL (≈ 2.96 µM) | MIC (S. aureus hVISA): 2 µg/mL (≈ 5.93 µM) | MIC [5]: 2 µg/mL (≈ 5.93 µM) | MIC (S. aureus BAA 977 iErmA): 2 µg/mL (≈ 5.93 µM) | MIC (S. aureus BAA 977 iErmA; 24 h): 4 µg/mL (≈ 11.9 µM) | MIC (E. coli ΔTolC): 8 µg/mL (≈ 23.7 µM) | MIC ([6]; Acinetobacter baumannii, A. baumannii HAV#651, Clinical): 16 µg/mL (≈ 47.4 µM) | MIC ([6]; Acinetobacter baumannii, A. baumannii HAV#652 Clinical): 32 µg/mL (≈ 94.9 µM) | MIC ([6]; Acinetobacter baumannii, A. baumannii HAV#653, Clinical): 32 µg/mL (≈ 94.9 µM) | MIC ([6]; Acinetobacter baumannii, A. baumannii HAV#654, Clinical): 32 µg/mL (≈ 94.9 µM) | MIC ([6]; Acinetobacter baumannii, A. baumannii HAV#655, Clinical): 128 µg/mL (≈ 379 µM) | MIC ([6]; Acinetobacter baumannii, A. baumannii HAV#656, Clinical): 64 µg/mL (≈ 190 µM) | MIC ([6]; Acinetobacter baumannii, A. baumannii HAV#657, Clinical): 64 µg/mL (≈ 190 µM) | MIC ([6]; Acinetobacter baumannii, A. baumannii HAV#658, Clinical): 64 µg/mL (≈ 190 µM) | MIC ([6]; Acinetobacter baumannii, A. baumannii HAV#659, Clinical): 64 µg/mL (≈ 190 µM) | MIC ([6]; Acinetobacter baumannii, A. baumannii HAV#660, Clinical): 64 µg/mL (≈ 190 µM) | MIC ([6]; Acinetobacter baumannii, A. baumannii HAV#661, Clinical): 32 µg/mL (≈ 94.9 µM) | MIC ([6]; Acinetobacter baumannii, A. baumannii HAV#662, Clinical): 64 µg/mL (≈ 190 µM) | MIC ([6]; Acinetobacter baumannii, A. baumannii HAV#663, Clinical): 32 µg/mL (≈ 94.9 µM) | MIC ([6]; Acinetobacter baumannii, A. baumannii HAV#664, Carbapenem R): 64 µg/mL (≈ 190 µM) | MIC ([6]; Enterococcus faecalis, E. faecalis HAV#602, Clincal): 4 µg/mL (≈ 11.9 µM) | MIC ([6]; Enterococcus faecalis, E. faecalis HAV#607, Clinical): 16 µg/mL (≈ 47.4 µM) | MIC ([6]; Enterococcus faecalis, E. faecalis HAV#609, Clinical): 4 µg/mL (≈ 11.9 µM) | MIC ([6]; Enterococcus faecalis, S. faecalis 5060, Line R & Vanco R): 8 µg/mL (≈ 23.7 µM) | MIC ([6]; Enterococcus faecalis, S. faecalis 5074, Line R): 8 µg/mL (≈ 23.7 µM) | MIC ([6]; Enterococcus faecalis, VRE, E. faecalis HAV#251, Clinical VRE): 2 µg/mL (≈ 5.93 µM) | MIC ([6]; Enterococcus faecalis, VRE, E. faecalis HAV#606, Clinical): 2 µg/mL (≈ 5.93 µM) | MIC ([6]; Enterococcus faecium, E. faecium HAV#317, Clinical): 2 µg/mL (≈ 5.93 µM) | MIC ([6]; Enterococcus faecium, E. faecium HAV#324, Clinical): 4 µg/mL (≈ 11.9 µM) | MIC ([6]; Enterococcus faecium, E. faecium HAV#327, Clinical): 4 µg/mL (≈ 11.9 µM) | MIC ([6]; Enterococcus faecium, E. faecium HAV#329, Clinical): 4 µg/mL (≈ 11.9 µM) | MIC ([6]; Enterococcus faecium, VRE, E. faecium HAV#318, VanA): 4 µg/mL (≈ 11.9 µM) | MIC ([6]; Enterococcus faecium, VRE, E. faecium HAV#319, Line R & Vanco R): 64 µg/mL (≈ 190 µM) | MIC ([6]; Enterococcus faecium, VRE, E. faecium HAV#320, Clinical): 2 µg/mL (≈ 5.93 µM) | MIC ([6]; Escherichia coli, E. coli HAV#503, Clinical): 128 µg/mL (≈ 379 µM) | MIC ([6]; Escherichia coli, E. coli HAV#511, Clinical): 32 µg/mL (≈ 94.9 µM) | MIC ([6]; Escherichia coli, E. coli HAV#512, Clinical): 32 µg/mL (≈ 94.9 µM) | MIC ([6]; Escherichia coli, E. coli HAV#513, Clinical): 32 µg/mL (≈ 94.9 µM) | MIC ([6]; Escherichia coli, E. coli HAV#514, Clinical): 32 µg/mL (≈ 94.9 µM) | MIC ([6]; Escherichia coli, E. coli HAV#516, ESBL-producing): 64 µg/mL (≈ 190 µM) | MIC ([6]; Haemophilus influenzae, ATCC9007, H. influenzae HAV#376, ATCC-9007): 4 µg/mL (≈ 11.9 µM) | MIC ([6]; Klebsiella pneumoniae, K. pneumoniae HAV#404, Clinical): 32 µg/mL (≈ 94.9 µM) | MIC ([6]; Klebsiella pneumoniae, K. pneumoniae HAV#405, Clinical): 32 µg/mL (≈ 94.9 µM) | MIC ([6]; Klebsiella pneumoniae, K. pneumoniae HAV#406, Clinical): 32 µg/mL (≈ 94.9 µM) | MIC ([6]; Klebsiella pneumoniae, K. pneumoniae HAV#407, Clinical): 32 µg/mL (≈ 94.9 µM) | MIC ([6]; Klebsiella pneumoniae, K. pneumoniae HAV#408, Clinical): 32 µg/mL (≈ 94.9 µM) | MIC ([6]; Klebsiella pneumoniae, K. pneumoniae HAV#409, ESBL-producing): 64 µg/mL (≈ 190 µM) | MIC ([6]; Staphylococcus aureus, MRSA, S. aureus HAV#0107, MRSA Col(Colindale, England)): 2 µg/mL (≈ 5.93 µM) | MIC ([6]; Staphylococcus aureus, MRSA, S. aureus HAV#218, Line R): 8 µg/mL (≈ 23.7 µM) | MIC ([6]; Staphylococcus aureus, MRSA, S. aureus HAV#220, Line R): 32 µg/mL (≈ 94.9 µM) | MIC ([6]; Staphylococcus aureus, MSSA, S. aureus HAV#219, Line R): 32 µg/mL (≈ 94.9 µM) | MIC ([6]; Staphylococcus aureus, S. aureus HAV#051, mecA, norA, spcl, ermA, aad1, aac6′-aph2″): 4 µg/mL (≈ 11.9 µM) | MIC ([6]; Staphylococcus aureus, S. aureus HAV#052, mecA, norA, fosB, blaZ): 4 µg/mL (≈ 11.9 µM) | MIC ([6]; Staphylococcus aureus, S. aureus HAV#053 mecA, norA, fosB): 4 µg/mL (≈ 11.9 µM) | MIC ([6]; Staphylococcus aureus, S. aureus HAV#054, mecA, norA, spcl, aad1, fosB, ermA, aac6′-aph2″, blaZ): 1 µg/mL (≈ 2.96 µM) | MIC ([6]; Staphylococcus aureus, S. aureus HAV#211, Clinical): 4 µg/mL (≈ 11.9 µM) | MIC ([6]; Staphylococcus aureus, S. aureus HAV#212, Clinical): 4 µg/mL (≈ 11.9 µM) | MIC ([6]; Staphylococcus aureus, S. aureus HAV#214, Clinical): 4 µg/mL (≈ 11.9 µM) | MIC ([6]; Staphylococcus aureus, S. aureus HAV#216, Clinical, cfr): 16 µg/mL (≈ 47.4 µM) | MIC ([6]; Staphylococcus aureus, S. aureus HAV#217, cfr): 64 µg/mL (≈ 190 µM) | MIC ([6]; Staphylococcus aureus, VISA, S. aureus HAV#203, Clinical (VISA)): 2 µg/mL (≈ 5.93 µM) | MIC ([6]; Staphylococcus epidermidis, S. epidermidis HAV# 275 Clinical, cfr): > 64 µg/mL | MIC ([6]; Staphylococcus epidermidis, S. epidermidis HAV# 276, cfr): > 64 µg/mL | MIC ([6]; Staphylococcus epidermidis, S. epidermidis HAV#277, Line R): > 128 µg/mL | MIC ([6]; Staphylococcus epidermidis, S. epidermidis HAV#278 Line R): 64 µg/mL (≈ 190 µM) | MIC ([6]; Staphylococcus epidermidis, S. epidermidis HAV#279, Line R): 4 µg/mL (≈ 11.9 µM) | MIC ([6]; Staphylococcus haemolyticus, S. haemolyticus 5052, Line R & Methicillin R): 64 µg/mL (≈ 190 µM) | MIC ([6]; Streptococcus pneumoniae, ATCC700673, S. pneumoniae HAV#352, ATCC 700673, MDR): 4 µg/mL (≈ 11.9 µM) | MIC ([6]; Streptococcus pneumoniae, ATCCBAA255, S. pneumoniae HAV#354, ATCC-BAA-255): 4 µg/mL (≈ 11.9 µM) | MIC ([6]; Streptococcus pneumoniae, ATCCBAA334, S. pneumoniae HAV#353, ATCC-BAA-334): 4 µg/mL (≈ 11.9 µM) | MIC ([6]; Streptococcus pneumoniae, S. pneumoniae HAV#356, Clinical): 4 µg/mL (≈ 11.9 µM) | MIC ([6]; Streptococcus pneumoniae, S. pneumoniae HAV#358, Clinical): 4 µg/mL (≈ 11.9 µM) | MIC (S. aureus MP-549 msrA): 4 µg/mL (≈ 11.9 µM)
